From patent US8716281B2, “Pyrimidine compounds that inhibit anaplastic lymphoma kinase” (Amgen Inc., priority 2010, dated 2014)
Like-named read-outs stand apart in the source and are kept apart here.

Target: T1, wild-type human ALK cytoplasmic domain (amino acids 1058-1620) (Homo sapiens, UniProt Q9UM73)
T1 construct: The cytoplasmic domain (amino acids 1058-1620) of wild-type human ALK; GST (N); made in house; host or cells: SF9 insect cells
Experiment: ALK Inhibition in Enzyme Assay (Lance TR-FRET)
Type: biochemical
Description: ALK Inhibition in Enzyme Assay
Kinase activity of the purified protein was assessed using a Lance® TR-FRET assay. […] The reaction was allowed to proceed for 90 minutes at room temperature and was then terminated with 20 mM EDTA in 50 mM Tris (pH 7.5), 100 mM NaCl, 0.05% BSA, and 0.1% Tween-20. Phosphorylation of the peptide substrate was detected using the Lance® detection reagents streptavidin-allophycocyanin (SA-APC) and Eu-W1024 anti-phosphotyrosine antibody (PT66) from Perkin Elmer Life Sciences (Waltham, Mass.). The plates were read on a RUBY star plate reader (BMG LABTECH, Cary, N.C.) with an excitation wavelength of 320 nm.

[1] = 2 nM enzyme, ATP at 40 μM (Km apparent), 90 minutes, mean of three replicates, read-out: ALK IC50

T1 sequence (Q9UM73 1058-1620): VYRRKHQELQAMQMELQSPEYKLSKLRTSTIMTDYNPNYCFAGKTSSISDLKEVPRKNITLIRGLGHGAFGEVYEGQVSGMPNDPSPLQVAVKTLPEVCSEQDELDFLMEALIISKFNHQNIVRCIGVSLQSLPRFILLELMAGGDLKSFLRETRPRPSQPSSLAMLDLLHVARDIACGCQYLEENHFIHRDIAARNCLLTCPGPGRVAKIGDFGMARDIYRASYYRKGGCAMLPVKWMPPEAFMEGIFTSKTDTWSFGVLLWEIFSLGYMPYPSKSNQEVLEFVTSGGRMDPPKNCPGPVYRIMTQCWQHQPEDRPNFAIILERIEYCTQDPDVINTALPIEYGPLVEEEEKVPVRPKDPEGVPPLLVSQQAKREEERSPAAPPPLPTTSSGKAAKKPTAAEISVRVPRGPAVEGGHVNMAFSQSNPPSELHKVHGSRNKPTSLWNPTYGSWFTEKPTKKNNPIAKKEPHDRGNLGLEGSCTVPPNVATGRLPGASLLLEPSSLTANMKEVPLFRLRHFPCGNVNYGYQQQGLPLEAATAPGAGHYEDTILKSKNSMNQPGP

SMILES	IC50 [1]	IC50
COc1ccc(CNC(=O)[C@H]2CCCN(c3ccnc(Nc4cc(OC)c(OC)c(OC)c4)n3)C2)cc1OC [Example 66, (S)-N-(3,4-dimethoxybenzyl)-1-(2-((3,4,5-trimethoxyphenyl)amino)-4-pyrimidinyl)-3-piperidinecarboxamide]	1000 to 5000 nM	–
COc1cc(Nc2nccc(N3CCC[C@H](C(=O)NCc4ccc(F)c(F)c4)C3)n2)cc(OC)c1OC [Example 67, (S)-N-(3,4-difluorobenzyl)-1-(2-((3,4,5-trimethoxyphenyl)amino)-4-pyrimidinyl)-3-piperidinecarboxamide]	100 to 1000 nM	–
COc1cc(Nc2nccc(N3CCC[C@H](C(=O)NCc4ccc(F)c(Cl)c4)C3)n2)cc(OC)c1OC [Example 68, (S)-N-(3-chloro-4-fluorobenzyl)-1-(2-((3,4,5-trimethoxyphenyl)amino)-4-pyrimidinyl)-3-pipcridinecarboxamide]	100 to 1000 nM	–
COc1cc(Nc2nccc(N3CCC[C@H](C(=O)NCc4ccc(C(C)(C)C)cc4)C3)n2)cc(OC)c1OC [Example 70, (S)-N-(4-tert-butylbenzyl)-1-(2-((3,4,5-trimethoxyphenyl)amino)-4-pyrimidinyl)-3-piperidinecarboxamide]	< 50 nM	–
COc1cc(Nc2nccc(N3CCC[C@H](C(=O)NCc4ccc([N+](=O)[O-])cc4)C3)n2)cc(OC)c1OC [Example 71, (S)-N-(4-nitrobenzyl)-1-(2-((3,4,5-trimethoxyphenyl)amino)-4-pyrimidinyl)-3-piperidinecarboxamide]	–	1000 to 5000 nM
COc1cc(Nc2nccc(N3CCC[C@H](C(=O)NCc4ccc(Oc5ccc(F)cc5)cc4)C3)n2)cc(OC)c1OC [Example 72, (S)-N-(4-(4-fluorophenoxy)benzyl)-1-(2-((3,4,5-trimethoxyphenyl)amino)-4-pyrimidinyl)-3-piperidinecarboxamide]	100 to 1000 nM	–
COc1cc(Nc2nccc(N3CCC[C@H](C(=O)NCc4ccc5c(c4)CCCN5C)C3)n2)cc(OC)c1OC [Example 73, (S)-N-((1-methyl-1,2,3,4-tetrahydro-6-quinolinyl)methyl)-1-(2-((3,4,5-trimethoxyphenyl)amino)-4-pyrimidinyl)-3-piperidinecarboxamide]	1000 to 5000 nM	–
COc1cc(Nc2nccc(N3CCC[C@H](C(=O)NCc4ccc(C)c(Cl)c4)C3)n2)cc(OC)c1OC [Example 74, (S)-N-(3-chloro-4-methylbenzyl)-1-(2-((3,4,5-trimethoxyphenyl)amino)-4-pyrimidinyl)-3-piperidinecarboxamide]	100 to 1000 nM	–
COc1cc(Nc2nccc(N3CCC[C@H](C(=O)NCc4ccc(OC(F)F)cc4)C3)n2)cc(OC)c1OC [Example 75, (S)-N-(4-(difluoromethoxy)benzyl)-1-(2-((3,4,5-trimethoxyphenyl)amino)-4-pyrimidinyl)-3-piperidinecarboxamide]	< 50 nM	–
COc1cc(Nc2nccc(N3CCC[C@H](C(=O)NCc4ccc5[nH]c(C)cc5c4)C3)n2)cc(OC)c1OC [Example 76, (S)-N-((2-methyl-1H-indol-5-yl)methyl)-1-(2-((3,4,5-trimethoxyphenyl)amino)-4-pyrimidinyl)-3-piperidinecarboxamide]	50 to 100 nM	–
COc1cc(Nc2nccc(N3CCC[C@H](C(=O)NCc4ccc5c(c4)OCCO5)C3)n2)cc(OC)c1OC [Example 77, (S)-N-(2,3-dihydro-1,4-benzodioxin-6-ylmethyl)-1-(2-((3,4,5-trimethoxyphenyl)amino)-4-pyrimidinyl)-3-piperidinecarboxamide]	1000 to 5000 nM	–
COc1cc(Nc2nccc(N3CCC[C@H](C(=O)NCc4ccc(N5CCOCC5)cc4)C3)n2)cc(OC)c1OC [Example 78, (S)-N-(4-(4-morpholinyl)benzyl)-1-(2-((3,4,5-trimethoxyphcnyl)amino)-4-pyrimidinyl)-3-piperidinecarboxamide]	1000 to 5000 nM	–
COc1cc(Nc2nccc(N3CCC[C@H](C(=O)NCc4cccc(OC(F)F)c4)C3)n2)cc(OC)c1OC [Example 79, (S)-N-(3-(difluoromethoxy)benzyl)-1-(2-((3,4,5-trimethoxyphenyl)amino)-4-pyrimidinyl)-3-piperidinecarboxamide]	< 50 nM	–
COc1cc(Nc2nccc(N3CCC[C@H](C(=O)NCc4cc(C)cc(C)c4)C3)n2)cc(OC)c1OC [Example 81, (S)-N-(3,5-dimethylbenzyl)-1-(2-((3,4,5-trimethoxyphenyl)amino)-4-pyrimidinyl)-3-piperidinecarboxamide]	5000 to 10000 nM	–
COc1cc(Nc2nccc(N3CCC[C@H](C(=O)NCc4ccc(C)c(C)c4)C3)n2)cc(OC)c1OC [Example 83, (S)-N-(3,4-dimethylbenzyl)-1-(2-((3,4,5-trimethoxyphenyl)amino)-4-pyrimidinyl)-3-piperidinecarboxamide]	100 to 1000 nM	–
COc1cc(Nc2nccc(N3CCC[C@H](C(=O)NCc4cccc(NS(C)(=O)=O)c4)C3)n2)cc(OC)c1OC [Example 84, (S)-N-(3-((methylsulfonyl)amino)benzyl)-1-(2-((3,4,5-trimethoxyphenyl)amino)-4-pyrimidinyl)-3-piperidinecarboxamide]	1000 to 5000 nM	–
COc1cc(Nc2nccc(N3CCC[C@H](C(=O)NCc4cccc(N5CCOCC5)c4)C3)n2)cc(OC)c1OC [Example 85, (S)-N-(3-(4-morpholinyl)benzyl)-1-(2-((3,4,5-trimethoxyphenyl)amino)-4-pyrimidinyl)-3-piperidinecarboxamide]	–	< 50 nM
COc1cc(Nc2nccc(N3CCC[C@H](C(=O)NCc4ccc(C(F)(F)F)c(F)c4)C3)n2)cc(OC)c1OC [Example 86, (S)-N-(3-fluoro-4-(tritluoromethyl)benzyl)-1-(2-((3,4,5-trimethoxyphenyl)amino)-4-pyrimidinyl)-3-piperidinecarboxamide]	100 to 1000 nM	–
COc1cc(Nc2nccc(N3CCC[C@H](C(=O)NCc4cccc(OC(C)C)c4)C3)n2)cc(OC)c1OC [Example 87, (S)-N-(3-(1-methylethoxy)benzyl)-1-(2-((3,4,5-trimethoxyphenyl)amino)-4-pyrimidinyl)-3-piperidinecarboxamide]	100 to 1000 nM	–
COc1cc(Nc2nccc(N3CCC[C@H](C(=O)NCc4ccc(OC(C)C)cc4)C3)n2)cc(OC)c1OC [Example 88, (S)-N-(4-(1-methylethoxy)benzyl)-1-(2-((3,4,5-trimethoxyphenyl)amino)-4-pyrimidinyl)-3-piperidinecarboxamide]	50 to 100 nM	–
COc1cc(Nc2nccc(N3CCC[C@H](C(=O)NCCc4cccc(C)c4)C3)n2)cc(OC)c1OC [Example 89, (S)-N-(2-(3-methylphenyl)ethyl)-1-(2-((3,4,5-trimethoxyphenyl)amino)-4-pyrimidinyl)-3-piperidinecarboxamide]	50 to 100 nM	–
COc1cc(Nc2nccc(N3CCC[C@H](C(=O)NCCc4ccc(Oc5ccccc5)cc4)C3)n2)cc(OC)c1OC [Example 90, (S)-N-(2-(4-phenoxyphenyl)ethyl)-1-(2-((3,4,5-trimethoxyphenyl)amino)-4-pyrimidinyl)-3-piperidinecarboxamide]	100 to 1000 nM	–
COc1cc(Nc2nccc(N3CCC[C@H](C(=O)NCCc4ccc(C(F)(F)F)cc4)C3)n2)cc(OC)c1OC [Example 91, (S)-N-(2-(4-(trifluoromethyl)phenyl)ethyl)-1-(2-((3,4,5-trimethoxyphenyl)amino)-4-pyrimidinyl)-3-piperidinecarboxamide]	50 to 100 nM	–
COc1cc(Nc2nccc(N3CCC[C@H](C(=O)NCCc4ccc(C)cc4)C3)n2)cc(OC)c1OC [Example 92, (S)-N-(2-(4-methylphenyl)ethyl)-1-(2-((3,4,5-trimethoxyphenyl)amino)-4-pyrimidinyl)-3-piperidinecarboxamide]	100 to 1000 nM	–
COc1ccc(CCNC(=O)[C@H]2CCCN(c3ccnc(Nc4cc(OC)c(OC)c(OC)c4)n3)C2)cc1 [Example 93, (S)-N-(2-(4-methoxyphenyl)ethyl)-1-(2-((3,4,5-trimethoxyphenyl)amino)-4-pyrimidinyl)-3-piperidinecarboxamide]	100 to 1000 nM	–
COc1cc(Nc2nccc(N3CCC[C@H](C(=O)NCCc4cccc(Br)c4)C3)n2)cc(OC)c1OC [Example 94, (S)-N-(2-(3-bromophenyl)ethyl)-1-(2-((3,4,5-trimethoxyphenyl)amino)-4-pyrimidinyl)-3-piperidinecarboxamide]	< 50 nM	–
COc1cc(Nc2nccc(N3CCC[C@H](C(=O)NCCc4cccc(F)c4)C3)n2)cc(OC)c1OC [Example 95, (S)-N-(2-(3-fluorophenyl)ethyl)-1-(2-((3,4,5-trimethoxyphenyl)amino)-4-pyrimidinyl)-3-piperidinecarboxamide]	100 to 1000 nM	–
COc1cc(Nc2nccc(N3CCC[C@H](C(=O)NCCc4cccc(C(F)(F)F)c4)C3)n2)cc(OC)c1OC [Example 96, (S)-N-(2-(3-(trifluoromethyl)phenyl)ethyl)-1-(2-((3,4,5-trimethoxyphenyl)amino)-4-pyrimidinyl)-3-piperidinecarboxamide]	< 50 nM	–
COc1cc(Nc2nccc(N3CCC[C@H](C(=O)NCCc4ccc(C)c(C)c4)C3)n2)cc(OC)c1OC [Example 97, (S)-N-(2-(3,4-dimethylphenyl)ethyl)-1-(2-((3,4,5-trimethoxyphenyl)amino)-4-pyrimidinyl)-3-piperidinecarboxamide]	1000 to 5000 nM	–
COc1cc(Nc2nccc(N3CCC[C@H](C(=O)NC[C@@H](C)c4ccccc4)C3)n2)cc(OC)c1OC [Example 98, (S)-N-((S)-2-phenylpropyl)-1-(2-((3,4,5-trimethoxyphenyl)amino)-4-pyrimidinyl)-3-piperidinecarboxamide]	100 to 1000 nM	–
